In the SangsterLogP compilation one finds logP data, which are given here for 32 molecules.

A short description of the data set: method code SF-AS, from DOI: 10.1021/je900189v.

One may read the logP as the decadic logarithm of the partition coefficient of the neutral form, usually between octanol and water. With `COc1ccc(NS(=O)(=O)c2ccc(N)cc2)cc1`, the logP worked out at 1.58.
In turn, `O=[N+]([O-])c1ccc(NS(=O)(=O)c2ccccc2)cc1` displayed a logP of 2.09.
The figure for `Cc1cc(N)ccc1S(=O)(=O)Nc1ccc(Cl)cc1` is 2.73; for `Cc1ccc(Cl)cc1NS(=O)(=O)c1ccc(N)cc1` it is 2.73.
The figure for `Nc1ccc(S(=O)(=O)Nc2cc(Cl)ccc2Cl)cc1` is 2.45; for `CCOc1ccc(NS(=O)(=O)c2ccc([N+](=O)[O-])cc2)cc1` it is 2.23.
In the case of `O=S(=O)(Nc1cccnc1Cl)c1ccccc1` it was 1.89; in that of `Cc1cc(N)ccc1S(=O)(=O)Nc1ccccc1Cl`, 2.66.
Take `Nc1ccc(S(=O)(=O)Nc2ccc([N+](=O)[O-])cc2)cc1`: the logP came out at 1.88.
The figure for `O=[N+]([O-])c1ccccc1NS(=O)(=O)c1ccccc1` is 2.08; for `O=S(=O)(Nc1ccc(Cl)cc1)c1ccccc1` it is 3.44; for `Nc1ccc(S(=O)(=O)Nc2ccc([N+](=O)[O-])cc2Br)cc1` it is 1.87.
The figure for `CC(=O)Nc1ccncc1NS(=O)(=O)c1ccc([N+](=O)[O-])cc1` is 0.71; for `Nc1ccc(S(=O)(=O)Nc2ccccc2Cl)c(Cl)c1` it is 2.98.
In the case of `O=[N+]([O-])c1ccc(S(=O)(=O)Nc2nccs2)cc1` it was 1.19; in that of `CCc1ccc(NS(=O)(=O)c2ccc(N)cc2)cc1`, 2.62; in that of `Nc1ccc(S(=O)(=O)Nc2ccc(Cl)cc2)c(Cl)c1`, 2.48.
In the case of `Nc1ccc(S(=O)(=O)Nc2ccc(Cl)cc2)cc1`, the logP turned out to be 2.47.
In the case of `Cc1ccc(NS(=O)(=O)c2ccc(N)cc2)cc1Cl` it was 2.92; in that of `Cc1cc(N)ccc1S(=O)(=O)Nc1ccccc1[N+](=O)[O-]`, 2.19.
`O=S(=O)(Nc1ncccc1Cl)c1ccccc1` gave a logP of 1.54.
In the case of `Nc1ccc(S(=O)(=O)Nc2ccc(I)cc2)cc1` it was 2.82.
In the case of `Cc1ccc(NS(=O)(=O)c2ccc(N)cc2)c(Cl)c1` it was 2.37; in that of `O=S(=O)(Nc1ccccc1Cl)c1ccccc1`, 2.72.
Regarding `Nc1ccc(S(=O)(=O)Nc2ccc(Cl)c(Cl)c2)cc1`, the logP stood at 2.64.
Regarding `Cc1ccc(NS(=O)(=O)c2ccc([N+](=O)[O-])cc2)nc1`, the lipophilicity (logP) came out at 1.01.
The figure for `O=S(=O)(Nc1cccc(Cl)c1Cl)c1ccccc1` is 3.45; for `Cc1cc(Cl)ccc1NS(=O)(=O)c1ccc(N)cc1` it is 2.65; for `COc1c(Cl)cccc1NS(=O)(=O)c1ccc(N)cc1` it is 2.43.
The figure for `Nc1ccc(S(=O)(=O)Nc2cc(Cl)c(Cl)cc2Cl)cc1` is 3.17.
The figure for `CCN(CC)S(=O)(=O)c1ccc(N)cc1` is 1.52; for `CNS(=O)(=O)c1ccc(N)cc1` it is 0.07.
